Values of other authors in article PMC7961821, “Comparing Ligninolytic Capabilities of Bacterial and Fungal Dye-Decolorizing Peroxidases and Class-II Peroxidase-Catalases” (International Journal of Molecular Sciences, 2021).

Experiments:
PchLiPA = target: T1, PchLiPA (Phanerodontia chrysosporium, UniProt P06181); assay: steady-state kinetics, absorbance loss at […] nm; type: biochemical; details: read-out: RB19; 1 mM H2O2, optimal pH (not given for RB19), 25 °C
T1 construct: gene LPOA; heme enzyme
T1 sequence (P06181 29-372): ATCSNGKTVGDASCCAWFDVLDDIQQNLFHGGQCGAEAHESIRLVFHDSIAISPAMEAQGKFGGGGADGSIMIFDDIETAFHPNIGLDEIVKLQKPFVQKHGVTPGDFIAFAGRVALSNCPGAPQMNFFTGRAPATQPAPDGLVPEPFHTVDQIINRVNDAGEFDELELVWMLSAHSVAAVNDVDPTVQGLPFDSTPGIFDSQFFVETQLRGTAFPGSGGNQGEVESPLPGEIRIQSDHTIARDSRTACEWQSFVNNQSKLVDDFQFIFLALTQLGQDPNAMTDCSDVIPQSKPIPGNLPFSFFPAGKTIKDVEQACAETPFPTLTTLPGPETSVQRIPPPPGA

PerVPL = target: T2, PerVPL (Pleurotus eryngii, UniProt O94753); assay: steady-state kinetics, absorbance loss at […] nm; type: biochemical; details: read-out: RB19; 1 mM H2O2, optimal pH (not given for RB19), 25 °C
T2 construct: gene vpl2; heme enzyme
T2 sequence (O94753 31-361): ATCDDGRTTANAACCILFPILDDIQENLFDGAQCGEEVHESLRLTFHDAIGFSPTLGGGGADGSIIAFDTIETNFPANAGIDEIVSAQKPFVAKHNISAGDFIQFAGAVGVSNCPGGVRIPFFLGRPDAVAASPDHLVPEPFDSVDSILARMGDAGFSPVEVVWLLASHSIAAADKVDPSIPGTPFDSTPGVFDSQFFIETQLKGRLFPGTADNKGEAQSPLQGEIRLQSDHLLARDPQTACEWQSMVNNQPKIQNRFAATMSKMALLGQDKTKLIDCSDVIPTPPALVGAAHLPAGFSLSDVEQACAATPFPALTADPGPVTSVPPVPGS

- Km (PchLiPA): 34 ± 13 µM
- Km (PerVPL): 33 ± 8 µM
Structure (SMILES): Nc1c(S(=O)(=O)O)cc(Nc2cccc(S(=O)(=O)CCOS(=O)(=O)O)c2)c2c1C(=O)c1ccccc1C2=O [RB19]
